Reference: ChEMBL document CHEMBL1221220, “Transport and signaling via the amino acid binding site of the yeast Gap1 amino acid transceptor” (Nat Chem Biol, 2009)
Substitutions are numbered along the chain they refer to. Active and inactive are the calls of the source.

Columns and labels:
[1] = test system: T1, General amino-acid permease GAP1 (Saccharomyces cerevisiae), P19145 [A393C]; assay: Induction of yeast Gap1 A393C mutant-mediated amino acid uptake at 2 mM in presence of 10 mM MTSEA treated before compound addition
T1 sequence (whole entry): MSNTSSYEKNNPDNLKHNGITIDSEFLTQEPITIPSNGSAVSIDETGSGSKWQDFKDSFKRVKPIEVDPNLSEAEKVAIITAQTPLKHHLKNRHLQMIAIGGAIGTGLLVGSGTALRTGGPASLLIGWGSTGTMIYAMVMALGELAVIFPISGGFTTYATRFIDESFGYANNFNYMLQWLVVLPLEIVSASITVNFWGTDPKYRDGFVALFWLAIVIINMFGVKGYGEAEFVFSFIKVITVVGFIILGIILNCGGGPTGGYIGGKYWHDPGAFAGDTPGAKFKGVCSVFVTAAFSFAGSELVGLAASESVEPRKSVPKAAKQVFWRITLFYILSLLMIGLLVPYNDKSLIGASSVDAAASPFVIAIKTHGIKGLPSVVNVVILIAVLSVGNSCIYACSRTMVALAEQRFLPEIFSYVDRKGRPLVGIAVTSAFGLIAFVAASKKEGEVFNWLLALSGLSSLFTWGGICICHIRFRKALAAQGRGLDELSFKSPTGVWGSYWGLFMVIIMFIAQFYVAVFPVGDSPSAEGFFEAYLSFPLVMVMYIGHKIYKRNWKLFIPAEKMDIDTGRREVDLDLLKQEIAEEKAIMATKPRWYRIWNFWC

[2] = test system: T2, General amino-acid permease GAP1 (Saccharomyces cerevisiae), P19145 [A396C]; assay: Induction of yeast Gap1 A396C mutant-mediated […] activation at 2 mM in presence of 10 mM MTSEA treated before compound addition
T2 sequence (whole entry): T1 sequence (whole entry) with C393A, A396C

[3] = test system: T3, General amino-acid permease GAP1 (Saccharomyces cerevisiae), P19145 [T400C]; assay: Induction of yeast Gap1 T400C mutant-mediated trehalose activation at 2 mM in presence of 10 mM MTSEA treated before compound addition
T3 sequence (whole entry): T1 sequence (whole entry) with C393A, T400C

[4] = test system: T4, General amino-acid permease GAP1 (Saccharomyces cerevisiae), P19145 [A405C]; assay: Induction of yeast Gap1 A405C mutant-mediated […] activation at 2 mM in presence of 10 mM MTSEA treated before compound addition
T4 sequence (whole entry): T1 sequence (whole entry) with C393A, A405C

NC(=O)NCCC[C@H](N)C(=O)O
active: Activity [1] | inhibition [2] | inhibition [3] | inhibition [4]
